Experimental findings from patent US20250320213A1, “Nitrogen-Containing Heterocyclic Compounds” (Pfizer Inc., priority 2024, published 2025) are described below.

This assay concerns the target T1, STAT6 (Homo sapiens, UniProt P42226).
T1 construct: stably transfected HaCaT keratinocyte cell line, which expresses NanoLuc luciferase reporter gene under the transcriptional control of the STAT6 responsive promoter; endogenous in cells; host or cells: HaCaT keratinocyte reporter cell line (stably transfected with a NanoLuc reporter)
T1 sequence (P42226 1-847): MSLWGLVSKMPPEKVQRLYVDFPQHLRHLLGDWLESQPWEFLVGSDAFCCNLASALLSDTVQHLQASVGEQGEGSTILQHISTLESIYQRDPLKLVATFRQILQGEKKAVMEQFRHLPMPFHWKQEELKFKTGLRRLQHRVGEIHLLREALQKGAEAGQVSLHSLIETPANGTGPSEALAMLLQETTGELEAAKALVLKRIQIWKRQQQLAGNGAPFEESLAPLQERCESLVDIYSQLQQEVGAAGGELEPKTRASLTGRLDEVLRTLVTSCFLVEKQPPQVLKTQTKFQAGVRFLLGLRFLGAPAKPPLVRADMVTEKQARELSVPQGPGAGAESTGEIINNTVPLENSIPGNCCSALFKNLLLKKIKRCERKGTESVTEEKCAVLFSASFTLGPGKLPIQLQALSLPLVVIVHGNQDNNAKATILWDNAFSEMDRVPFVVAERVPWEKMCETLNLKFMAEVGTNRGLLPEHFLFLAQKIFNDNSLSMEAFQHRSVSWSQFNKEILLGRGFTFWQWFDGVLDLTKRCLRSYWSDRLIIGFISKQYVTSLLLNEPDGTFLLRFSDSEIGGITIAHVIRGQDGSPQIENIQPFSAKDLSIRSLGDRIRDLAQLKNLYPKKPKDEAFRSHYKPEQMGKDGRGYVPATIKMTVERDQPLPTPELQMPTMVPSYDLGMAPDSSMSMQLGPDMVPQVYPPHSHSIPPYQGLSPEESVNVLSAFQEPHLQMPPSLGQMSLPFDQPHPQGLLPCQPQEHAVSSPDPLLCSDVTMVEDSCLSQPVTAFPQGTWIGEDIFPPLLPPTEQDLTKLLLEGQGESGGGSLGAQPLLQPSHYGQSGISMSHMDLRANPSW
Description: STAT6 Reporter Luciferase Assay (IL-13 stimulated HaCaT keratinocyte NanoLuc reporter cells). It is filed as cell-based. The following applies: IL-13 stimulated HaCaT STAT6 NanoLuc reporter cells; read-out: Reporter EC50. The method, boiled down: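 IL-13 (0.12 nM, 4 h) stimulated STAT6 reporter activity in HaCaT cells after a 2 h compound pre-incubation; NanoLuc signal was measured.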
By EC50 is commonly meant the concentration giving half of the maximal effect. As to `CC(C)n1nc(C(=O)NCc2ccc(NC(=O)N(C)C)cc2)c2c1CCN(c1ccc(C(=O)N3Cc4ccccc4[C@H]3C)cn1)C2` [Example 426, (R)-N-(4-(3,3-dimethylureido)benzyl)-1-isopropyl-5-(5-(1-methylisoindoline-2-carbonyl)pyridin-2-yl)-4,5,6,7-tetrahydro-1H-pyrazolo[4,3-c]pyridine-3-carboxamide], the EC50 worked out at 13 nM.

As for `COC1(C)CN(C(=O)c2ccc(N3CCc4c(c(C(=O)NCc5ccc(NC(=O)N(C)C)cc5)nn4C(C)C)C3)nc2)C1` [Example 226, N-(4-(3,3-dimethylureido)benzyl)-1-isopropyl-5-(5-(3-methoxy-3-methylazetidine-1-carbonyl)pyridin-2-yl)-4,5,6,7-tetrahydro-1H-pyrazolo[4,3-c]pyridine-3-carboxamide], the concentration giving a half-maximal response (EC50) was 1930 nM.

On to `Cc1cc2n(n1)CCN(C(=O)c1ccc(N3CCc4c(c(C(=O)NCc5ccc(NC(=O)N(C)C)cc5)nn4C(C)C)C3)nc1)C2` [Example 377, N-(4-(3,3-dimethylureido)benzyl)-1-isopropyl-5-(5-(2-methyl-4,5,6,7-tetrahydropyrazolo[1,5-a]pyrazine-5-carbonyl)pyridin-2-yl)-4,5,6,7-tetrahydro-1H-pyrazolo[4,3-c]pyridine-3-carboxamide], for which the concentration for a half-maximal effect (EC50) came out at 21 nM.

Turning to `CC(=O)N1CCCN(C(=O)c2ccc(N3CCc4c(c(C(=O)NCc5ccc(NC(=O)N(C)C)cc5)nn4C(C)C)C3)nc2)CC1` [Example 200, 5-(5-(4-acetyl-1,4-diazepane-1-carbonyl)pyridin-2-yl)-N-(4-(3,3-dimethylureido)benzyl)-1-isopropyl-4,5,6,7-tetrahydro-1H-pyrazolo[4,3-c]pyridine-3-carboxamide], the EC50 is 363 nM.

As to `CC(C)n1nc(C(=O)NCc2ccc(NC(=O)NC3(C)CNC3)c(F)c2)c2c1[C@@H](C)CN(c1ccc(C(=O)N(C)C)cc1)C2` [Example 685, (S)-5-(4-(dimethylcarbamoyl)phenyl)-N-(3-fluoro-4-(3-(3-methylazetidin-3-yl)ureido)benzyl)-1-isopropyl-7-methyl-4,5,6,7-tetrahydro-1H-pyrazolo[4,3-c]pyridine-3-carboxamide], the concentration giving a half-maximal response (EC50) worked out at 2 nM.

With `CC(C)n1nc(C(=O)NCc2ccc(NC(=O)N(C)C)cc2)c2c1CCN(c1ccc(C(=O)N3CCc4cc(C#N)ccc4C3)cn1)C2` [Example 436, 5-(5-(6-cyano-1,2,3,4-tetrahydroisoquinoline-2-carbonyl)pyridin-2-yl)-N-(4-(3,3-dimethylureido)benzyl)-1-isopropyl-4,5,6,7-tetrahydro-1H-pyrazolo[4,3-c]pyridine-3-carboxamide], the concentration for a half-maximal effect (EC50) was determined as 22 nM.

For the molecule `CC(C)n1nc(C(=O)NCc2ccc(NC(=O)N3CCN(C)CC3)cc2)c2c1[C@@H](C)CN(c1ccc(-c3nccn3C(F)F)cn1)C2` [Example 654, (S)-5-(5-(1-(difluoromethyl)-1H-imidazol-2-yl)pyridin-2-yl)-1-isopropyl-7-methyl-N-(4-(4-methylpiperazine-1-carboxamido)benzyl)-4,5,6,7-tetrahydro-1H-pyrazolo[4,3-c]pyridine-3-carboxamide], the concentration for a half-maximal effect (EC50) turned out to be 2 nM.

As for `CC(C)n1nc(C(=O)NCc2ccc(NC(=O)N(C)C)cc2)c2c1CCN(c1ccc(C(=O)N3CC4(CNC(=O)C4)C3)cn1)C2` [Example 327, N-(4-(3,3-dimethylureido)benzyl)-1-isopropyl-5-(5-(7-oxo-2,6-diazaspiro[3.4]octane-2-carbonyl)pyridin-2-yl)-4,5,6,7-tetrahydro-1H-pyrazolo[4,3-c]pyridine-3-carboxamide], the 50% effective concentration (EC50) was determined as 3200 nM.

Consider `CC(C)n1nc(C(=O)NCc2ccc(NC(=O)N(C)C)cc2)c2c1CCN(c1ccc(C(=O)N3CCn4nncc4C3)cn1)C2` [Example 427, N-(4-(3,3-dimethylureido)benzyl)-1-isopropyl-5-(5-(4,5,6,7-tetrahydro-[1,2,3]triazolo[1,5-a]pyrazine-5-carbonyl)pyridin-2-yl)-4,5,6,7-tetrahydro-1H-pyrazolo[4,3-c]pyridine-3-carboxamide], for which the 50% effective concentration (EC50) worked out at 282 nM.

Take `CC(C)n1nc(C(=O)NCc2ccc(NC(=O)N(C)C)cc2)c2c1CCN(c1ccc(C(=O)N3CCCC(O)C3)cn1)C2` (racemic) [Example 220, rac-(R)-N-(4-(3,3-dimethylureido)benzyl)-5-(5-(3-hydroxypiperidine-1-carbonyl)pyridin-2-yl)-1-isopropyl-4,5,6,7-tetrahydro-1H-pyrazolo[4,3-c]pyridine-3-carboxamide]: the concentration giving a half-maximal response (EC50) came out at 336 nM.

Turning to `CC(C)n1nc(C(=O)NCc2ccc(NC(=O)N(C)C)cc2)c2c1CCN(c1ccc(C(=O)N3CCNC(=O)C3(C)C)cn1)C2` [Example 217, 5-(5-(2,2-dimethyl-3-oxopiperazine-1-carbonyl)pyridin-2-yl)-N-(4-(3,3-dimethylureido)benzyl)-1-isopropyl-4,5,6,7-tetrahydro-1H-pyrazolo[4,3-c]pyridine-3-carboxamide], the EC50 was found to be 272 nM.

Consider `CC(C)n1nc(C(=O)NCc2ccc(NC(=O)N(C)C)cc2)c2c1CCN(c1ccc(C(=O)N3CCn4c(cccc4=O)C3)cn1)C2` [Example 439, N-(4-(3,3-dimethylureido)benzyl)-1-isopropyl-5-(5-(6-oxo-1,3,4,6-tetrahydro-2H-pyrido[1,2-a]pyrazine-2-carbonyl)pyridin-2-yl)-4,5,6,7-tetrahydro-1H-pyrazolo[4,3-c]pyridine-3-carboxamide], for which the EC50 was 88 nM.

As for `CC(C)n1nc(C(=O)NCc2ccc(NC(=O)N3CC(C)(N(C)C)C3)cc2)c2c1[C@@H](C)CN(c1ccc(C(=O)N(C)C)cc1)C2` [Example 748, (S)-N-(4-(3-(dimethylamino)-3-methylazetidine-1-carboxamido)benzyl)-5-(4-(dimethylcarbamoyl)phenyl)-1-isopropyl-7-methyl-4,5,6,7-tetrahydro-1H-pyrazolo[4,3-c]pyridine-3-carboxamide], the EC50 was 1 nM.

On to `CCN(CC(=O)NC)C(=O)c1ccc(N2CCc3c(c(C(=O)NCc4ccc(NC(=O)N(C)C)cc4)nn3C(C)C)C2)nc1` [Example 213, N-(4-(3,3-dimethylureido)benzyl)-5-(5-(ethyl(2-(methylamino)-2-oxoethyl)carbamoyl)pyridin-2-yl)-1-isopropyl-4,5,6,7-tetrahydro-1H-pyrazolo[4,3-c]pyridine-3-carboxamide], for which the EC50 worked out at 718 nM.

For `CC(C)n1nc(C(=O)NCc2ccc(NC(=O)N3CC4(CN(C)C4)C3)cc2)c2c1[C@@H](C)CN(c1ccc(C(=O)N(C)C)cc1)C2` [Example 751, (S)-5-(4-(dimethylcarbamoyl)phenyl)-1-isopropyl-7-methyl-N-(4-(6-methyl-2,6-diazaspiro[3.3]heptane-2-carboxamido)benzyl)-4,5,6,7-tetrahydro-1H-pyrazolo[4,3-c]pyridine-3-carboxamide], the concentration for a half-maximal effect (EC50) is 9 nM.

Regarding `CC(=O)N1C[C@@H]2CN(C(=O)c3ccc(N4CCc5c(c(C(=O)NCc6ccc(NC(=O)N(C)C)cc6)nn5C(C)C)C4)nc3)C[C@@H]2C1` [Example 296, 5-(5-((3aR,6aS)-5-acetyloctahydropyrrolo[3,4-c]pyrrole-2-carbonyl)pyridin-2-yl)-N-(4-(3,3-dimethylureido)benzyl)-1-isopropyl-4,5,6,7-tetrahydro-1H-pyrazolo[4,3-c]pyridine-3-carboxamide], the EC50 was determined as 523 nM.

Take `CC(C)n1nc(C(=O)NCc2ccc(NC(=O)N(C)C)cc2)c2c1CCN(c1ccc(C(=O)N3CCC(C)(C#N)C3)cn1)C2` (stereo not drawn) [Example 240, 5-(5-(3-cyano-3-methylpyrrolidine-1-carbonyl)pyridin-2-yl)-N-(4-(3,3-dimethylureido)benzyl)-1-isopropyl-4,5,6,7-tetrahydro-1H-pyrazolo[4,3-c]pyridine-3-carboxamide]: the concentration for a half-maximal effect (EC50) came to 3630 nM.

For `CC(C)n1nc(C(=O)NCc2ccc(NC(=O)N3CCN(C)CC3)cc2)c2c1C(C(F)(F)F)CN(c1ccc(C(=O)N(C)C)cn1)C2` (single isomer, unassigned) [Example 693, rel-(R or S)-5-(5-(dimethylcarbamoyl)pyridin-2-yl)-1-isopropyl-N-(4-(4-methylpiperazine-1-carboxamido)benzyl)-7-(trifluoromethyl)-4,5,6,7-tetrahydro-1H-pyrazolo[4,3-c]pyridine-3-carboxamide], the concentration for a half-maximal effect (EC50) came out at 16 nM.
